# Experimental data taken from patent publication US6159735A, “Calcitonin/calcitonin gene related peptide enhancer element and associated DNA binding proteins” (University of Iowa Research Foundation, priority 1995, dated 2000).
# Where two headings read alike, the source gives them in different places.
# Assays:
# CT/CGRP enhancer [1] = assay: CT/CGRP promoter/enhancer luciferase reporter transfection assay in CA77 cells; assay type: cell-based, rat
# CT/CGRP enhancer [2] = assay: CT/CGRP promoter/enhancer reporter gene (luciferase/CAT) transfection assay in 44-2C cells
# From the text: (§1) The 44-2C rat medullary thyroid carcinoma cell line was maintained in DMEM (high glucose) with 1% equine serum (HyClone Laboratories, Logan, Utah) and 0.1% L-glutamine; CA77 rat medullary thyroid carcinoma cells in Ham's F-12 medium/DMEM (low glucose)(1:1) with 10% fetal bovine serum (HyClone Laboratories); HeLa human epithelial derived cells in Ham's F-12 medium with 10% fetal bovine serum; and Rat1 fibroblast cells in DMEM (high glucose) with 10% calf serum. Also, 100 units/ml penicillin and 100 μg/ml streptomycin (GIBCO) were added to each culture medium.
# (§2) Transfections were carried out by growing cells to approximately 80% confluency, harvesting them by brief trypsin/EDTA treatment, and resuspending them in Ca^2+ /Mg^2+ -free PBS.
# In the retinoic acid experiments, the cells were treated essentially as above except that an apparently critical parameter for retinoic acid inhibition was that the CA77 cells could not be aggregated into clumps. To be consistent, all cell types were subcultured by trypsin treatment 1 day prior to the experiment, except for the 44-2C cells, which often required 2 days to firmly attach. About 4-5×10^6 cells in 0.8 ml were transfected with supercoiled DNA by electroporation using a Biorad Gene Pulser apparatus at 200 volts for the CA77 cells, 220 volts for the HeLa cells, and 260 volts for the 44-2C cells, all with a capacitance of 960 microfarads. The same amount of DNA (20 μg) was used per cuvette unless otherwise indicated. For the α-RXR cotransfection assays, 10 μg 18 bp CT/CGRP-TK-luc plasmid, 18 μg RSV-α-RAR plasmid, or 2 μg β-actin-RXR plasmid (brought to 30 μg total DNA with CMV-β-gal plasmid) were transfected into the cells (constructs described in Glass, C. K., S. M. Lipkin, O. V. Devary, and M. G. Rosenfeld (1989) Cell 59, 697-708; Glass, C. K., O. V. Devary, and M. G. Rosenfeld (1990) Cell 63, 729-738). The transfected cells from a single cuvette were then split between two 60 mm dishes and treated with 1 mM retinoic acid (Sigma) or the vehicle (0.01% ethanol). About 50 to 80% cell survival of the electroporation procedure was observed, except the 44-2C cells, in which approximately 25% of the cells were recovered. The cells were harvested 18-25 hours after transfection. Activities are reported per 50 μg protein unless otherwise noted.
# Activity of the reporter genes and control constructs was measured by luciferase, CAT, or β-Galactosidase assays.
# CT/CGRP enhancer [3] = assay: CT/CGRP promoter/enhancer luciferase reporter transfection assay in Rat1 fibroblast cells; assay type: cell-based, rat
# From the text: Reporter fusion genes were constructed for experiments to localize cis-active elements responsible for glucocorticoid repression of the CT/CGRP gene.
# as §1, §2
# Activity of the reporter genes and control constructs was measured by luciferase, CAT, or β-Galactosidase assays. […] After centrifugation, 20-50 μl of supernatant cell extract was assayed for luciferase activity as previously described (Braiser, A. R., Tate, J. E., and Habener, J. F. (1989) Biotechniques 7, 1116-1122) using a luminometer (Analytical Luminescence Laboratory Monolight 2001). […]
# CT/CGRP enhancer [4] = assay: CT/CGRP promoter/enhancer luciferase reporter transfection assay in HeLa cells; assay type: cell-based, human
# calcitonin and CGRP mRNA = details: CA77 cells, retinoic acid treatment, literature; cited from earlier work
# [5] = tested on: cytomegalovirus promoter / thymidine kinase promoter; assay: Control reporter genes CMV-luc and TK-luc in CA77 and 44-2C cells; assay type: cell-based, rat; details: 1 μM retinoic acid
# [6] = biological target: nuclear retinoic acid receptor (RAR); details: literature; read-out: nuclear retinoic acid receptor (RAR) binding affinity Kd; cited from earlier work
# [7] = tested on: retinoic acid responsive element from the β-retinoic acid receptor gene (RARE-TK-luc); assay: cells; details: Rattus norvegicus
# Method: In the retinoic acid experiments, the cells were treated essentially as above except that an apparently critical parameter for retinoic acid inhibition was that the CA77 cells could not be aggregated into clumps. […] About 4-5×10^6 cells in 0.8 ml were transfected with supercoiled DNA by electroporation using a Biorad Gene Pulser apparatus at 200 volts for the CA77 cells, 220 volts for the HeLa cells, and 260 volts for the 44-2C cells, all with a capacitance of 960 microfarads. The same amount of DNA (20 μg) was used per cuvette unless otherwise indicated. For the α-RXR cotransfection assays, 10 μg 18 bp CT/CGRP-TK-luc plasmid, 18 μg RSV-α-RAR plasmid, or 2 μg β-actin-RXR plasmid (brought to 30 μg total DNA with CMV-β-gal plasmid) were transfected into the cells (constructs described in Glass, C. K., S. M. Lipkin, O. V. Devary, and M. G. Rosenfeld (1989) Cell 59, 697-708; Glass, C. K., O. V. Devary, and M. G. Rosenfeld (1990) Cell 63, 729-738). The transfected cells from a single cuvette were then split between two 60 mm dishes and treated with 1 mM retinoic acid (Sigma) or the vehicle (0.01% ethanol). […] The cells were harvested 18-25 hours after transfection. Activities are reported per 50 μg protein unless otherwise noted.
# Activity of the reporter genes and control constructs was measured by luciferase, CAT, or β-Galactosidase assays. To carry out the luciferase assays, cells were washed twice in PBS, harvested by scraping into PBS and then lysed in 100 μl of Triton lysis buffer (1% Triton X-100, 25 mM glycylclycine, pH 7.8, 15 mM MgSO4, 1 mM dithiothreitol). After centrifugation, 20-50 μl of supernatant cell extract was assayed for luciferase activity as previously described (Braiser, A. R., Tate, J. E., and Habener, J. F. (1989) Biotechniques 7, 1116-1122) using a luminometer (Analytical Luminescence Laboratory Monolight 2001). The assay was linear between 100 (background) and at least 800,000 light units.
# [8] = tested on: H/OB, OB2, HB1 and Oct-1 complexes on CT/CGRP enhancer; assay: Electrophoretic mobility shift assay of CT/CGRP enhancer complexes in CA77 nuclear extracts; assay type: biochemical, rat; details: nuclear extracts from CA77 cells treated 24 hours with retinoic acid
# Method: To perform electrophoretic mobility shift assays, nuclei were harvested from approximately 10^8 cells using a previously described miniextract preparation protocol, with one modification (Lee, K. A. W., and Green, M. R. (1990) Methods Enzymol. 181, 20-25). Instead of dialyzing the extract to remove excess NaCl, the extract was diluted 1:1 with extract buffer lacking NaCl. Aliquots of the diluted extract were stored at -70° C. Annealed oligonucleotide duplexes (10 pmol) containing recessed 3' termini were labeled for use as probes by incorporation of [^32 P]dATP (25 μCi, 3000 Ci/mmol) using Klenow DNA polymerase. Both strands of blunt-ended oligonucleotides (10 pmol) were labeled separately using T4 polynucleotide kinase and [γ-^32 P]ATP (20 μCi, 3000 Ci/mmol), then annealed. Unlabeled oligonucleotides used for competition assays were annealed and then treated with Klenow DNA polymerase if the ends were not already blunt. All probes and competitor DNAs were purified over Sephadex G50 columns.
# The binding reaction (20 μl) contained approximately 3 μg (1-2 μl) of nuclear extract, 0.02 pmol of ^32 P-labeled DNA probe (50,000-100,000 cpm), 10 mM Tris-HCl, pH 7.5, 5% glycerol, 50 mM NaCl, 1 mM EDTA, and 1 mM dithiothreitol. Also, 0.1 μg of poly [d(I-C)] […] Unlabeled competitors were preincubated with nuclear extracts 10 minutes on ice prior to addition of probe. […]
structure (smiles),measurement,setting,value
"CC1=C(/C=C/C(C)=C/C=C/C(C)=C/C=O)C(C)(C)CCC1 [Retinal, retinal]",minimal effective concentration,"CT/CGRP enhancer [1]; Rattus norvegicus, 1125 CAL-luc, read-out: concentrations at which CT/CGRP promoter activity was repressed",≥ 0.1 µM
same,IC50,"CT/CGRP enhancer [1]; Rattus norvegicus, 1125 CAL-luc, read-out: half-maximal repression of CT/CGRP promoter activity",300 nM
C[C@@H]1C[C@H]2[C@@H]3CCC4=CC(=O)C=C[C@]4(C)[C@@]3(F)[C@@H](O)C[C@]2(C)[C@@]1(O)C(=O)CO [dexamethasone],repression of -920-1125 TK-LUC fusion gene expression,"CT/CGRP enhancer [2]; 44-2C cells, 500 nM dexamethasone",2.5-3 fold
same,repression of promoter activity of fusion genes containing at least 1125 bp of upstream sequences,"CT/CGRP enhancer [2]; 44-2C cells, 500 nM dexamethasone, 24 h",2.5-4.5 fold
same,"repression of -920-1125 TK-LUC fusion gene expression, in a few experiments","CT/CGRP enhancer [2]; 44-2C cells, 500 nM dexamethasone, a few experiments",≤ 10 fold
same,effect on gene activity from the shorter constructs,"CT/CGRP enhancer [2]; 44-2C cells, 500 nM dexamethasone, constructs lacking -920-1125 region",slightly stimulated
same,repression with -1091-1017 and -1043-1025 elements (TK-LUC),"CT/CGRP enhancer [2]; 44-2C cells, dexamethasone",24 fold
same,repression of -920-1125-TK-LUC promoter activity in dose response,"CT/CGRP enhancer [2]; 44-2C cells, dexamethasone concentrations above 50 nM, 24 h",approximately 10 fold
same,IC50,"CT/CGRP enhancer [2]; Rattus norvegicus, 24 h, read-out: dexamethasone concentration for half-maximal inhibition of -920-1125-TK-LUC",2.5 nM
same,repression of activity of the -920-1125 enhancer,CT/CGRP enhancer [3],did not repress
same,repression of activity of the -920-1125 enhancer,CT/CGRP enhancer [4]; HeLa cells,did not repress
same,stimulation of reporter activity of all plasmids including TK-LUC,CT/CGRP enhancer [4]; non-neuroendocrine cells,1.5-2 fold
same,repression of calcitonin/CGRP promoter fusion genes containing the -920-1125-bp element,CT/CGRP enhancer [1]; dexamethasone treatment,did not repress
same,repression with smaller elements that include the 18-bp region (TK-LUC),CT/CGRP enhancer [1]; p<0.01,1.6 fold
same,repression of activity of the -920-1125-bp region (TK-LUC),CT/CGRP enhancer [1]; p<0.05,1.2 fold
CC1=C(/C=C/C(C)=C/C=C/C(C)=C/C(=O)O)C(C)(C)CCC1 [retinoic acid],repression of 1125-920-TK-luc activity,"CT/CGRP enhancer [2]; 44-2C cells, 1 μM retinoic acid",2 fold
same,decrease in calcitonin and CGRP mRNA levels,calcitonin and CGRP mRNA,2-3 fold
same,effect on TK-luc activity,[5]; 44-2C cells,no effect
same,effect on CMV-luc and TK-luc,[5]; CA77 cells,not significantly affected
same,Kd,[6],0.2 nM
same,effect on 1125-920-TK-luc activity,"CT/CGRP enhancer [4]; HeLa cells, 1 μM retinoic acid, also with α-RAR/α-RXR cotransfection",no effect
same,retinoic acid dependent repression with 75 bp and 18 bp fragments (TK-luc),CT/CGRP enhancer [1],comparable to the full 205 bp region
same,retinoic acid dependent repression with 1039-1125-TK-luc and 920-1038-TK-luc,CT/CGRP enhancer [1],Neither 1039-1125-TK-luc nor 920-1038-TK-luc exhibited retinoic acid dependent repression
same,retinoic acid repression with HLH or Oct mutant constructs,CT/CGRP enhancer [1],neither the HLH or Oct mutant constructs conferred retinoic acid repression
same,"maximal repression of 1125 CAL-luc, decrease of control activity",CT/CGRP enhancer [1]; 100 nM retinoic acid,3 fold
same,repression of promoter fragments containing 920 bp or less,CT/CGRP enhancer [1]; 1 μM retinoic acid,not repressed
same,decrease in promoter activity of luciferase fusion genes containing 1125 bp or more 5' flanking sequences,"CT/CGRP enhancer [1]; 1 μM retinoic acid, 24 hours",2-3 fold
same,repression in CAL1125-luc activity without cotransfected receptor,"CT/CGRP enhancer [1]; 1 μM retinoic acid, parallel cultures",2 fold
same,retinoic acid dependent repression in CAL1125-luc activity with cotransfected α-RAR,"CT/CGRP enhancer [1]; 1 μM retinoic acid, α-RAR expression vector",5 fold
same,IC50,"CT/CGRP enhancer [1]; Rattus norvegicus, read-out: amount required for half-maximal repression of 1125 CAL-luc",~0.2 nM
same,fold induction at 1 µM,"[7]; read-out: increase in RARE-TK-luc activity, 44-2C cells, 1 μM retinoic acid",35
same,fold induction at 1 µM,"[7]; read-out: increase in RARE-TK-luc activity, CA77 cells, 1 μM retinoic acid, no cotransfected receptor",5
same,fold induction at 1 µM,"[7]; read-out: retinoic acid dependent stimulation of RARE-TK-luc activity with cotransfected α-RAR, CA77 cells, 1 μM retinoic acid, α-RAR expression vector",15
same,"change in OB2, HB1, or Oct-1 complexes",[8],no significant change
same,decrease in H/OB complex (densitometric scans),[8],~2 fold
